Test results as given in ChEMBL document CHEMBL1201862, “PubChem BioAssay data set” (2004).
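Cells were grown in 96-well plates and exposed to each compound for 48 hours at five concentrations; endpoints were interpolated linearly between bracketing concentrations, or set to the highest concentration if not reached. Abbreviation: GI50, concentration required for 50% inhibition of growth.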 Calls of active or inactive are those of the source. No stated cut-off is given here; in the data, active = GI50 up to about 1.1 µM and inactive = higher.

How the values were obtained:
Assay in all cases: inhibition of tumour cell growth, NCI panel, 48 h
U-251 = system: U-251
KM12 = system: KM12
A549 = system: A549
NCI-H226 = system: NCI-H226
OVCAR-3 = system: OVCAR-3
UO-31 = system: UO-31
OVCAR-8 = system: OVCAR-8
NCI-H522 = system: NCI-H522
NCI-H23 = system: NCI-H23
SF-539 = system: SF-539
ACHN = system: ACHN
786-0 = system: 786-0
SK-MEL-5 = system: SK-MEL-5
A498 = system: A498
UACC-62 = system: UACC-62
IGROV-1 = system: IGROV-1
RXF 393 = system: RXF 393
T47D = system: T47D

Measured: GI50

COc1ccc(-n2cnn3c(=O)c4cn[nH]c4nc23)cc1
inactive: U-251 > 10 µM | KM12 > 10 µM | A549 > 10 µM | NCI-H226 > 10 µM | OVCAR-3 > 10 µM | UO-31 > 10 µM | OVCAR-8 > 10 µM | NCI-H522 > 10 µM | NCI-H23 > 10 µM | SF-539 > 10 µM | ACHN > 10 µM | 786-0 > 10 µM | SK-MEL-5 > 10 µM

CCOC(=O)/C(=C/c1cccc(Cl)c1)N(CC)CC
inactive: U-251 43.3 µM | KM12 39.1 µM | A498 > 100 µM | A549 36.2 µM | NCI-H226 37.8 µM | UACC-62 33.9 µM | UO-31 37.1 µM | OVCAR-8 42.2 µM | IGROV-1 49.4 µM | NCI-H522 24.3 µM | NCI-H23 27.7 µM | SF-539 73.5 µM | ACHN 35.5 µM | 786-0 67.9 µM | SK-MEL-5 41.1 µM

CC(=O)C1C(=O)C(=O)N(c2ccccc2C(C)C)C1=O (configuration not stated)
inactive: U-251 > 100 µM | KM12 > 100 µM | A498 > 100 µM | A549 > 100 µM | NCI-H226 > 100 µM | OVCAR-3 > 100 µM | UACC-62 > 100 µM | UO-31 > 100 µM | RXF 393 > 100 µM | OVCAR-8 > 100 µM | IGROV-1 > 100 µM | NCI-H522 > 100 µM | NCI-H23 > 100 µM | SF-539 > 100 µM | ACHN > 100 µM | 786-0 > 100 µM | SK-MEL-5 > 100 µM

CSC(SC)(C(=O)O)c1cc(-c2c(Cl)cccc2Cl)no1
inactive: U-251 28.4 µM | T47D 28.4 µM | A549 55.1 µM | NCI-H226 25.1 µM | OVCAR-3 55.6 µM | UACC-62 27.9 µM | UO-31 25.1 µM | OVCAR-8 > 100 µM | IGROV-1 30.4 µM | NCI-H522 28.5 µM | NCI-H23 19.2 µM | SF-539 > 100 µM | ACHN 46.9 µM | 786-0 39.5 µM | SK-MEL-5 33.7 µM

CC1=C(C(=O)Nc2ccc([N+](=O)[O-])cc2)C(c2ccccc2F)C(C(=O)Nc2ccc([N+](=O)[O-])cc2)=C(C)N1
inactive: U-251 14.9 µM | KM12 9.14 µM | A498 5.48 µM | A549 9.64 µM | NCI-H226 14 µM | OVCAR-3 8.32 µM | UO-31 6.61 µM | RXF 393 6.75 µM | OVCAR-8 21.7 µM | IGROV-1 12.8 µM | NCI-H522 8.2 µM | NCI-H23 11.2 µM | SF-539 17.3 µM | ACHN 4.21 µM | 786-0 20.8 µM | SK-MEL-5 13.9 µM

NNC(=S)N/N=C(/C(=O)Nc1ccc([N+](=O)[O-])cc1)c1nc2ccc([N+](=O)[O-])cc2nc1O
inactive: U-251 > 100 µM | KM12 > 100 µM | A498 > 100 µM | A549 > 100 µM | NCI-H226 > 100 µM | UACC-62 > 100 µM | UO-31 > 100 µM | OVCAR-8 > 100 µM | IGROV-1 > 100 µM | NCI-H522 36.5 µM | NCI-H23 > 100 µM | SF-539 > 100 µM | ACHN 95.3 µM | 786-0 > 100 µM | SK-MEL-5 45.5 µM

COc1ccc(O)cc1 [MEQUINOL]
inactive: U-251 > 100 µM | KM12 42.7 µM | A498 > 100 µM | A549 > 100 µM | NCI-H226 > 100 µM | OVCAR-3 44.8 µM | UACC-62 24.8 µM | UO-31 57.4 µM | RXF 393 > 100 µM | OVCAR-8 55.7 µM | IGROV-1 > 100 µM | NCI-H23 > 100 µM | SF-539 47.4 µM | ACHN 31.3 µM | 786-0 92 µM | SK-MEL-5 42.8 µM
